Values quoted from earlier work in US20060204588A1, “Formulations of a nanoparticulate finasteride, dutasteride or tamsulosin hydrochloride, and mixtures thereof” (Elan Pharma International Limited, priority 2005, published 2006).

Solubility in water	Solubility in alcohol (alcohol)	Solubility in chloroform (chloroform)	Solubility in lower alcohol solvents (lower alcohol solvents)	Solubility in ethanol (in words) (ethanol)	Solubility in ether (ether)	Solubility in glacial acetic acid (glacial acetic acid)	Solubility in methanol (in words) (methanol)	Compound
insoluble	–	–	–	–	–	–	–	C[C@]12C=CC(=O)N[C@@H]1CC[C@@H]1[C@@H]2CC[C@]2(C)[C@@H](C(=O)Nc3cc(C(F)(F)F)ccc3C(F)(F)F)CC[C@@H]12 [Dutasteride, (5α, 17β)-(2,5 bis-(trifluoromethyl)phenyl)-3-oxo-4-azaandrost-1-ene-17-carboxamide]
practically insoluble	soluble	freely soluble	freely soluble	–	–	–	–	CC(C)(C)NC(=O)[C@H]1CC[C@H]2[C@@H]3CC[C@H]4NC(=O)C=C[C@]4(C)[C@H]3CC[C@]12C [Finasteride, (5alpha,17beta)-N-(1,1-dimethylethyl)-3-oxo-4-azaandrost-1-ene-17-carboxamide]
sparingly soluble	–	–	–	slightly soluble	practically insoluble	slightly soluble	sparingly soluble	CCOc1ccccc1OCCNC(C)Cc1ccc(OC)c(S(N)(=O)=O)c1.Cl (single isomer, unassigned; (-)) [Tamsulosin hydrochloride]
